This experiment can be described thus: Compound was tested for cytotoxic activity against murine colon 26-L5 carcinoma cells. Format: functional. As to conditions: Mus musculus; read-out: ED50 (the source's name).

As for `COC(=O)[C@]1(C)[C@@H](O)C[C@H](O)[C@]23C[C@]24CC[C@]2(C)[C@@H]([C@H](C=O)C/C=C/C(C)(C)O)CC[C@@]2(C)[C@@H]4CC[C@@H]13`, the EC50 stood at 43.8 µM.
With `C=C(CC[C@@H](C)[C@H]1CC[C@@]2(C)[C@@H]3CC[C@H]4[C@](C)(C(=O)O)[C@@H](O)C[C@H](OC(C)=O)[C@@]45C[C@@]35CC[C@]12C)C(C)C`, the EC50 amounted to 57.6 µM.
As for `C=C(C)[C@@H]1CC[C@H]([C@H]2CC[C@@]3(C)[C@@H]4CC[C@H]5[C@](C)(C(=O)OC)[C@@H](O)C[C@H](O)[C@@]56C[C@@]46CC[C@]23C)[C@@H](OC)O1`, the figure is 18.1 µM; as for `C=C(CC[C@@H](C)[C@H]1CC[C@@]2(C)[C@@H]3CC[C@H]4[C@](C)(C(=O)O)[C@@H](O)C[C@H](O)[C@@]45C[C@@]35CC[C@]12C)C(C)C`, 49.6 µM; as for `C=C(CC[C@@H](C)[C@H]1CC[C@@]2(C)[C@@H]3CC[C@H]4[C@](C)(C(=O)OC)[C@@H](OC(C)=O)C[C@@H]5O[C@H](C[C@]12C)[C@]31C[C@]541)C(C)C`, 77.8 µM.
In the case of `C=C(CC[C@@H](C)[C@H]1CC[C@@]2(C)[C@@H]3CC[C@H]4[C@](C)(C(=O)O)[C@@H](O)CC[C@@]45C[C@@]35CC[C@]12C)C(C)C`, the EC50 was 62.4 µM.
The value for `COC(=O)[C@]1(C)[C@@H](O)C[C@H](O)[C@]23C[C@]24CC[C@]2(C)[C@@H]([C@H](C=O)C/C=C/C(C)(C)OO)CC[C@@]2(C)[C@@H]4CC[C@@H]13` was 9.54 µM.
As for `C=C(CC[C@@H](C)[C@H]1CC[C@@]2(C)[C@@H]3CC[C@H]4[C@](C)(C(=O)O)[C@@H](O)CC(=O)[C@@]45C[C@@]35CC[C@]12C)C(C)C`, the figure is 58.6 µM; as for `C=C(CC[C@@H](C)[C@H]1CC[C@@]2(C)[C@@H]3CC[C@H]4[C@](C)(C(=O)O)[C@@H](OC(C)=O)C[C@H](OC(C)=O)[C@@]45C[C@@]35CC[C@]12C)C(C)C`, 52.5 µM; as for `C=C(CC[C@@H](C)[C@H]1CC[C@@]2(C)[C@@H]3CC[C@H]4[C@](C)(C(=O)OC)[C@@H](O)C[C@@H]5O[C@H](C[C@]12C)[C@]31C[C@]541)C(C)C`, 5.42 µM.

The values above are taken from ChEMBL document CHEMBL1130708, “Cytotoxic cycloartane-type triterpenes from Combretum quadrangulare” (1998).
